Data on one compound can be found in paper PMC10326885, “Design of Heme Enzymes with a Tunable Substrate Binding Pocket Adjacent to an Open Metal Coordination Site” (Journal of the American Chemical Society, 2023).

The target of this test is T1, dnHEM1 (synthetic construct, UniProt Z9V042XZY6).
T1 construct: de novo alpha-helical closed solenoid (toroid) from designed scaffold PDB 4YXX, redesigned with Rosetta, surface desymmetrized by K29W and K165Y (already part of dnHEM1); expressed in E. coli; monomer
T1 sequence (Z9V042XZY6 1-210): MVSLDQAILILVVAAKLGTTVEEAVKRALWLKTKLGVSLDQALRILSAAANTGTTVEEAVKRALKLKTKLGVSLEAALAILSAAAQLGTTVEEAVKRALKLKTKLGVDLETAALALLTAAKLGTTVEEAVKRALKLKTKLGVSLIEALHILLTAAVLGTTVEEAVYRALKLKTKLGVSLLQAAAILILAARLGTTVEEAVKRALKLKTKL
Description: UV/Vis titration of hemin into apo-protein, absorbance at […] nm. It counts as binding.

`C=CC1=C(C)C2=Cc3c(C=C)c(C)c4[n]3[Fe]([Cl])[n]3c(c(C)c(CCC(=O)O)c3=CC3=NC(=C4)C(C)=C3CCC(=O)O)=CC1=N2` [hemin] had a Kd of 2.5 ± 1.2 nM.
